{
  "source": "patent US10570099B2",
  "about": "“Salts of an epidermal growth factor receptor kinase inhibitor” (Celgene CAR LLC, priority 2012, dated 2020)",
  "key": {"[1]": {"experiment": "Dog PK Study 2 (gastric pH adjustment, food effect)", "type": "in vivo, beagle dogs", "conditions": "dogs, oral, 30 mg/kg QD, both low and high gastric pH conditions", "protocol": "Compound 1 free base and compound 2, as the Form I monohydrobromide (HBr) salt, were evaluated in a cross-over dog PK study in which male dogs were pre-treated with either pentagastrin (to decrease gastric pH) or famotidine (to increase gastric pH) prior to oral dosing to control gastric pH. In addition, the effect of food on the systemic exposure to compound 1 was also evaluated in dogs receiving Form I HBr with pentagastrin pre-treatment. Compound 1 free base capsule consisted of compound 1 free base in Vitamin E TPGS and PEG 400 filled into a capsule. The Form I hydrobromide salt capsule consisted of Form I HBr alone filled into a capsule.\nThere was a minimum 6-day washout between dosing. On the day of dosing under fed condition, dogs were given 60 gram of a high fat diet (Harlan Teklad 2027C) and allowed to consume all of the food within 15-20 minutes. The animals were given a 10-minute rest period and then the capsule doses were administered. Plasma samples were collected at pre-dose and 0.5, 1, 2, 4, 6, 8, 12 and 24 hours post dose."}, "[2]": {"experiment": "Administration to healthy volunteers (single dose PK study)", "type": "in vivo, healthy male subjects", "conditions": "50 mg dose, Regimen B", "source_text": "The primary objective of the study is to compare the compound 1 pharmacokinetic (PK) profiles of single doses of Form I monohydrobromide formulations with that of the compound 1 free base in healthy adult males.\nThis is a single centre non-randomised, open-label, single dose study in healthy male subjects. Subjects will be screened for eligibility to participate in the study up to 28 days before dosing. The subjects will be admitted to the clinical unit at approximately 09:00 in the morning on the day prior to dosing (Day-1) and will remain on site until 24 h after each dose. Each subject will attend a follow-up visit 4 to 6 days after the final dose.\nOne group of 12 subjects will be dosed in an effort to obtain the data described above. Each subject will receive the following formulations in a crossover investigation. Dosing will be separated by at least 7 days. • Regimen A: 150 mg compound 1 (free base) capsule • Regimen B: 50 mg as active compound 2 (Form I HBr) tablet formulation • Regimen C: ≤150 mg as active compound 2 (Form I HBr) tablet formulation\nAll formulations will be dosed in the morning, following an overnight fast. Subjects will be allowed water up to 2 h before the scheduled dosing time and will be provided with 240 mL of water at 2 h post-dose. […]\nPlasma concentration data will be tabulated and plotted for each subject for whom concentrations are quantifiable."}, "[3]": {"experiment": "1 week stability of primary screen salts at 40° C./75% RH and 80° C. (open vials, XRPD)", "type": "physicochemical", "protocol": "(open vials). TGA was carried out after the stability studies for samples containing sufficient material."}},
  "data": [
    {"smiles": "Br.C=CC(=O)Nc1cccc(Nc2nc(Nc3ccc(N4CCN(C(C)=O)CC4)cc3OC)ncc2C(F)(F)F)c1", "note": "[Form I hydrobromide salt]", "values": [
      {"measurement": "compound 1 exposure compared to the free base form", "setting": "[1]", "result": "significantly higher"},
      {"measurement": "patient-to-patient variability", "setting": "[2]", "result": "less patient-to-patient variability"},
      {"measurement": "Stability 40° C./75% RH (open conditions)", "setting": "[3]", "result": "No form change, slight"},
      {"measurement": "Stability 80° C. (open conditions)", "setting": "[3]", "result": "No Form change."}
    ]}
  ]
}
